Results from patent publication US6362369B1, “Phthalic acid diamide derivatives fluorine-containing aniline compounds as starting material, agricultural and horticultural insecticides, and a method for application of the insecticides” (Nihon Nohyaku Co., Ltd., priority 1997, dated 2002).

Legend:
[1] = system: diamondback moth (Plutella xylostella); test: Insecticidal effect on diamondback moth (Test Example 1); type: in vivo; conditions: mortality judged according to the criterion shown in Test Example 1
Procedure, shortened: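 Triplicate groups of 10 insects were scored: six days after immersion of oviposited Chinese cabbage seedlings and holding at 25 °C post air-drying, hatched larvae were counted. Mortality derived from these counts and insecticidal effect judged by a set criterion.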

[2] = system: rice leafroller (Cnaphalocrocis medinalis); test: Insecticidal effect on rice leafroller (Test Example 3); type: in vivo; conditions: 500 ppm, rice lamina dip, third-instar larvae, four days after inoculation, 25° C., humidity 70%
Procedure, shortened: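 Insecticidal effect is judged by a predefined criterion from dead/alive counts four days after infesting air-dried lamina with third-instar larvae, kept on moistened filter paper at 25° C, 70% humidity.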

Structure (SMILES)	Insecticidal effect on diamondback moth (Test Example 1), judged grade [1]	Insecticidal effect on rice leafroller (Test Example 3), judged grade [2]
COc1c(C)ccc(NC(=O)c2cccc([N+](=O)[O-])c2C(=O)NC(C)C)c1C [compound 694]	A (100)	A (100)
Cc1cc(OCC(F)(F)F)ccc1NC(=O)c1cccc([N+](=O)[O-])c1C(=O)NC(C)C [compound 697]	A (100)	A (100)
CC(C)NC(=O)c1c(C(=O)Nc2ccc(OC(F)(F)F)cc2Cl)cccc1[N+](=O)[O-] [compound 704]	A (100)	A (100)
Cc1c(NC(=O)c2cccc([N+](=O)[O-])c2C(=O)NC(C)C)ccc(OC(F)F)c1Cl [compound 717]	A (100)	A (100)
Cc1cc(OC(F)(F)C(F)F)c(Cl)cc1NC(=O)c1cccc([N+](=O)[O-])c1C(=O)NC(C)C [compound 718]	A (100)	A (100)
Cc1cc(SC(F)F)ccc1NC(=O)c1cccc([N+](=O)[O-])c1C(=O)NC(C)C [compound 722]	A (100)	A (100)
Cc1cc(N(C)C)ccc1NC(=O)c1cccc([N+](=O)[O-])c1C(=O)NC(C)C [compound 723]	D (79-50)	D (79-50)
Cc1cc(Oc2cccc(C(F)(F)F)c2)ccc1NC(=O)c1cccc([N+](=O)[O-])c1C(=O)NC(C)C [compound 724]	A (100)	B (99-90)
Cc1cc(Oc2ccc(C(F)(F)F)cn2)ccc1NC(=O)c1cccc([N+](=O)[O-])c1C(=O)NC(C)C [compound 728]	A (100)	A (100)
Cc1cc(Oc2ncc(C(F)(F)F)cc2Cl)ccc1NC(=O)c1cccc([N+](=O)[O-])c1C(=O)NC(C)C [compound 729]	A (100)	A (100)
CC(C)NC(=O)c1cccc([N+](=O)[O-])c1C(=O)Nc1ccc(C(F)(F)F)cc1Cl [compound 740]	A (100)	A (100)
Cc1cc(Cl)ccc1NC(=O)c1cccc(C)c1C(=O)NC(C)C [compound 750]	A (100)	A (100)
Cc1cc(OC(F)F)ccc1NC(=O)c1cccc(C)c1C(=O)NC(C)C [compound 751]	A (100)	A (100)
Cc1ccc(Cl)cc1NC(=O)c1cccc(C(F)(F)F)c1C(=O)NC(C)C [compound 755]	A (100)	A (100)
COc1cccc(C(=O)NC(C)C)c1C(=O)Nc1ccc(OC(F)(F)F)cc1 [compound 769]	A (100)	D (79-50)
COc1cccc(C(=O)NC(C)C)c1C(=O)Nc1ccc(Br)cc1C [compound 771]	A (100)	C (89-80)
Cc1cc(Cl)ccc1NC(=O)c1cccc(OC(F)F)c1C(=O)NC(C)C [compound 772]	A (100)	A (100)
Cc1ccc(Cl)cc1NC(=O)c1cccc(OC(F)F)c1C(=O)NC(C)C [compound 773]	A (100)	A (100)
Cc1cc(OC(F)F)ccc1NC(=O)c1cccc(OC(F)F)c1C(=O)NC(C)C [compound 774]	A (100)	A (100)
Cc1ccc(Cl)cc1NC(=O)c1cc(OC(F)F)ccc1C(=O)NC(C)C [compound 776]	B (99-90)	D (79-50)

Structure (SMILES)	Insecticidal effect on diamondback moth (Test Example 1), judged grade [1]	Insecticidal effect on rice leafroller (Test Example 3), judged grade [2]
Cc1cc(Cl)ccc1NC(=O)c1c(OC(F)F)cccc1C(=O)NC(C)C [compound 777]	A (100)	D (79-50)
Cc1ccc(Cl)cc1NC(=O)c1c(OC(F)F)cccc1C(=O)NC(C)C [compound 778]	A (100)	A (100)
CSc1cccc(C(=O)Nc2ccc(Br)cc2C)c1C(=O)NC(C)C [compound 782]	A (100)	A (100)
Cc1cc(Cl)ccc1NC(=O)c1cccc(SC(C)C)c1C(=O)NC(C)C [compound 788]	C (89-80)	C (89-80)
Cc1cc(OC(F)F)ccc1NC(=O)c1cccc([S+](C)[O-])c1C(=O)NC(C)C (centres unmarked) [compound 791]	A (100)	A (100)
Cc1cc(OC(F)F)ccc1NC(=O)c1cccc(SCC(F)(F)F)c1C(=O)NC(C)C [compound 797]	A (100)	C (89-80)
Cc1cc(OC(F)F)ccc1NC(=O)c1cccc([S+]([O-])CC(F)(F)F)c1C(=O)NC(C)C (centres unmarked) [compound 799]	A (100)	A (100)
Cc1cc(Cl)ccc1NC(=O)c1cccc(C(=O)NC(C)C)c1C(=O)NC(C)C [compound 803]	A (100)	A (100)
Cc1ccc(Cl)cc1NC(=O)c1ccc2ccccc2c1C(=O)NC(C)C [compound 821]	A (100)	A (100)
Cc1ccc(Cl)cc1NC(=O)c1cc2ccccc2cc1C(=O)NC(C)C [compound 822]	D (79-50)	D (79-50)
Cc1cc(Cl)ccc1NC(=O)c1ccccc1C(=O)N(C)C(C)C [compound 826]	A (100)	A (100)
CC(C)CNC(=O)c1ccccc1C(=O)Nc1ccc(C(F)(F)F)cc1 [compound 833]	A (100)	D (79-50)
CCC(C)NC(=O)c1c(Cl)cccc1C(=O)Nc1ccc(OC(F)F)cc1C (centres unmarked) [compound 836]	A (100)	A (100)
CCC(C)NC(=O)c1c(C(=O)Nc2ccc(OC(F)F)cc2C)cccc1[N+](=O)[O-] (centres unmarked) [compound 839]	A (100)	C (89-80)
CC(C)(C)NC(=O)c1ccccc1C(=O)Nc1ccccc1 [compound 840]	A (100)	D (79-50)
Cc1cc(OC(F)F)ccc1NC(=O)c1c(Cl)cccc1C(=O)NC1CC1 [compound 850]	A (100)	A (100)
Cc1cc(OC(F)F)ccc1NC(=O)c1cccc([N+](=O)[O-])c1C(=O)NC1CC1 [compound 852]	A (100)	D (79-50)
Cc1cc(OC(F)F)ccc1NC(=O)c1cccc([N+](=O)[O-])c1C(=O)NC1CCCC1 [compound 856]	A (100)	D (79-50)
Cc1cc(OC(F)F)ccc1NC(=O)c1cccc([N+](=O)[O-])c1C(=O)NCCF [compound 863]	A (100)	B (99-90)
C=CCNC(=O)c1c(C(=O)Nc2ccc(OC(F)F)cc2C)cccc1[N+](=O)[O-] [compound 867]	A (100)	C (89-80)
